Series [1] is described as follows: Metabolic profiling of plasma after in vivo administration, dog.
A short description of series [2]: In vitro assays of genotoxic potential.
Series [3] has as its target T1, human glucocorticoid receptor (GR) (Homo sapiens, UniProt P04150).
T1 construct: expressed in transfected cells; host or cells: HEK293, transient transfection (Fugene), CMV promoter plasmid
T1 sequence (P04150 1-777): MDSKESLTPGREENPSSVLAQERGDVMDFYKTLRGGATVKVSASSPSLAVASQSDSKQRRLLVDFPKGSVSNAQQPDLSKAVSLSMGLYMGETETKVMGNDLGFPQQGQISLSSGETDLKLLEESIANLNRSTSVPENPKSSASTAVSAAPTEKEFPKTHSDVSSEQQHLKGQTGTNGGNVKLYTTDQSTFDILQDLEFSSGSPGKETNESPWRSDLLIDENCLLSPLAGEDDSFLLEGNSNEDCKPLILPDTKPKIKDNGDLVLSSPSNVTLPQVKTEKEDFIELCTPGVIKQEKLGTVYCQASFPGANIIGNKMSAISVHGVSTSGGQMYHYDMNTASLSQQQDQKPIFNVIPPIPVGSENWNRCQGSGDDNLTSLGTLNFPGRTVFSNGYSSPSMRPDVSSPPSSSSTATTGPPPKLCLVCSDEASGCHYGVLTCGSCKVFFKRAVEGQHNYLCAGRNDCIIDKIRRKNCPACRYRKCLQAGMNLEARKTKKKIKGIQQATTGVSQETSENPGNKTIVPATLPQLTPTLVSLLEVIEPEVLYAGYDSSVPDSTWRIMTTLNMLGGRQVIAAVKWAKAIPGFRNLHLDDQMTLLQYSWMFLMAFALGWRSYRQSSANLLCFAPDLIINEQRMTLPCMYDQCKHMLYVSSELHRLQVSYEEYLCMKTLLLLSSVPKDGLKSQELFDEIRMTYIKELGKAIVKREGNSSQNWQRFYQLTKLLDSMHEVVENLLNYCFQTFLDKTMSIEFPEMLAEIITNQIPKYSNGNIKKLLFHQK
Description: Nuclear hormone receptor functional modulation assay (GRE-luciferase, HEK293), GR. In kind it is cell-based. From the text:
(§1) The solvents, reagents, and ligands employed in the functional assay are readily available from commercial sources, or can be prepared by one of ordinary skill in the art.
(§2) Human embryonic kidney HEK293 cells are transfected with steroid hormone receptor and reporter gene plasmids using Fugene™ (Roche Diganostics) transfection reagent. Briefly, the reporter plasmid containing two copies of probasin ARE (androgen response element 5′GGTTCTTGGAGTACT3′ (SEQ ID NO:1)) and TK(thymidine kinase) promoter upstream of the luciferase reporter cDNA, is transfected into HEK293 cells with a plasmid constitutively expressing human androgen receptor (AR) using viral CMV(cytomegalovirus) promoter. The reporter plasmid containing two copies of GRE (glucocorticoid response element 5′TGTACAGGATGTTCT′3 (SEQ ID NO:2)) and TK promoter upstream of the luciferase reporter cDNA is transfected with a plasmid constitutively expressing either human glucocorticoid receptor (GR), human mineralocorticoid receptor (MR), or human progesterone receptor (PR) using viral CMV promoter. Cells are transfected in T150 cm flasks in DMEM media with 5% charcoal-stripped Fetal Bovine Serum (FBS). […] In the antagonist mode for the assays, low concentrations of agonist for each respective receptor are added to the media (0.25 nM dexamethasone for GR, 0.3 nM of methyltrienolone for AR, 0.05 nM of promegestone for PR and 0.05 nM aldosterone for MR), and the ability of test compound to antagonize the agonist response is determined. After 24 hours of incubation with test compounds, cells are lysed and luciferase activity is determined using standard techniques.
(§3) Data are fitted to a four parameter-fit logistic curve fit to determine EC50 values. […] IC50 values may be determined similarly using antagonist mode assay data. Percent inhibitions may also be determined relative to the response in the presence of agonist alone, as described above.

Series [4] addresses T2, human progesterone receptor (PR) (Homo sapiens, UniProt P06401).
T2 construct: expressed in transfected cells; host or cells: HEK293, transient transfection (Fugene), CMV promoter plasmid
T2 sequence (P06401 1-933): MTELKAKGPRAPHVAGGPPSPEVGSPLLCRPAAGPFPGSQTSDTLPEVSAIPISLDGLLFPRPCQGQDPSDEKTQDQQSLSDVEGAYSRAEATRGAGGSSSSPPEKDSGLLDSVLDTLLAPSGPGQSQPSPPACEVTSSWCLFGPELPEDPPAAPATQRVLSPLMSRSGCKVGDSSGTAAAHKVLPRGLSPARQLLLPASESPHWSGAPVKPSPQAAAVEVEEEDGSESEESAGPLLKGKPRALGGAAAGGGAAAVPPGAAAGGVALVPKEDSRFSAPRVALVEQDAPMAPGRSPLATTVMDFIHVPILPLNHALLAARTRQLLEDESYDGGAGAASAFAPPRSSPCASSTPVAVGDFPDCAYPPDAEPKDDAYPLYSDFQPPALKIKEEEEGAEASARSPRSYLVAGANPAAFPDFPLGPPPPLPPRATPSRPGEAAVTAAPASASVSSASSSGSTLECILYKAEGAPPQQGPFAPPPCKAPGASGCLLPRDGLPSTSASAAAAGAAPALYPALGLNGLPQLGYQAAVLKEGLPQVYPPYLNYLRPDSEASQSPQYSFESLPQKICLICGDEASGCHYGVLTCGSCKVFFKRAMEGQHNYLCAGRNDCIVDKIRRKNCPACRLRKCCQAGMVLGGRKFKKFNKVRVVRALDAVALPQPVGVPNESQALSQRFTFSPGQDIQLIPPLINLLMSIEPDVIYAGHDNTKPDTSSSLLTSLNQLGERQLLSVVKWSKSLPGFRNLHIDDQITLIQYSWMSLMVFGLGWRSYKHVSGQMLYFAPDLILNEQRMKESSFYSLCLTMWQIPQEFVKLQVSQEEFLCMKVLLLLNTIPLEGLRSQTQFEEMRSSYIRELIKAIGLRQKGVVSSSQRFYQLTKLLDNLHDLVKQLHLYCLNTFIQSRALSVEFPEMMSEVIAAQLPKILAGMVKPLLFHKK
Kind of series: Nuclear hormone receptor functional modulation assay (GRE-luciferase, HEK293), PR. It counts as cell-based.
Text: as §1, §2, §3

A word on the EC50: it is the concentration that produces a half-maximal response. A high value points to lower potency in that assay. As for `CC/C(=C1\c2ccc(Cl)cc2OCc2ncccc21)c1cccc(NS(C)(=O)=O)c1` [Compound (I), (E)-N-{3-[1-(8-Chloro-11H-10-oxa-1-aza-dibenzo[a,d]cyclohepten-5-ylidene)-propyl]-phenyl}-methanesulfonamide], in series [1], the “circulating entity in plasma” value is listed as “major circulating entity”. Besides, in series [2], the genotoxic potential result is given as “non-genotoxic”. Moreover, the Emax in series [3] (HEK293, partial agonist activity, read-out: maximal efficacy in inducing GR/GRE-mediated gene transcription (transactivation)) was below 50%. The EC50 in series [3] (agonist mode, activating transcription, mean of 3) is 1.9 nM; in series [4] (agonist mode, activating transcription), above 10000 nM. Besides, in series [3] (percent efficacy at 10 μM relative to 100 nM dexamethasone, mean of 3), the “GR % Eff.” value was found to be 45.7%. The “modulation of gene expression mediated by PR” value in series [4] (functional modulation, in words) was “only limited activity”. Besides, the “PR % Eff.” value in series [4] (percent efficacy at 10 μM relative to 30 nM promegestone, mean of 3) was found to be 40.1%.

For the origin of these results see patent publication US8101760B2, “Glucocorticoid receptor modulator and methods of use” (Eli Lilly and Company, priority 2007, dated 2012).
